Data published in patent US20210045385A1, “PYRIDAZINONE-SUBSTITUTED KETOXIMES AS HERBICIDES” (FMC Corporation, priority 2018, published 2021).

Legend:
Format in all cases: in vivo
[1] = system: Italian ryegrass (Lolium multiflorum); assay: Test A preemergence, visual plant response rating; settings: for Ryegrass, Italian plant response rating: 125 g ai/ha, preemergence, 0 to 100 scale, 0 no effect, 100 complete control; for Ryegrass, Italian plant response rating (0 to 100 scale): 500 g ai/ha Preemergence, approx. 10 days
In short: (§1)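 Compared with untreated controls, treated plants received a visual injury score on a 0–100 scale around 10 days after application. The compound, in a non-phytotoxic solvent with surfactant, was given as a preemergence soil spray or postemergence at the one- to two-leaf stage.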

[2] = system: barnyardgrass (Echinochloa crus-galli); assay: Test A preemergence, visual plant response rating; settings: for Barnyardgrass plant response rating: 125 g ai/ha, preemergence, 0 to 100 scale, 0 no effect, 100 complete control; for Barnyardgrass plant response rating (0 to 100 scale): 500 g ai/ha Preemergence, approx. 10 days
In short: as §1

[3] = system: foxtail, giant (giant foxtail, Setaria faberii); assay: Test A preemergence, visual plant response rating; settings: for Foxtail, Giant plant response rating: 125 g ai/ha, preemergence, 0 to 100 scale, 0 no effect, 100 complete control; for Foxtail, Giant plant response rating (0 to 100 scale): 500 g ai/ha Preemergence, approx. 10 days
In short: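 Formulated in a non-phytotoxic solvent mixture including surfactant, each test chemical was sprayed onto the soil surface after sowing, or onto seedlings 2 to 10 cm high. Roughly 10 days later, plants were compared with untreated controls and rated for injury from 0 (no effect) to 100 (complete control).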

[4] = system: kochia (Kochia scoparia); assay: Test A preemergence, visual plant response rating; settings: for Kochia plant response rating: 125 g ai/ha, preemergence, 0 to 100 scale, 0 no effect, 100 complete control; for Kochia plant response rating (0 to 100 scale): 500 g ai/ha Preemergence, approx. 10 days
In short: as §1

[5] = system: pigweed (Amaranthus retroflexus); assay: Test A preemergence, visual plant response rating; settings: for Pigweed plant response rating: 125 g ai/ha, preemergence, 0 to 100 scale, 0 no effect, 100 complete control; for Pigweed plant response rating (0 to 100 scale): 500 g ai/ha Preemergence, approx. 10 days
In short: as §1

[6] = system: ragweed (common ragweed, Ambrosia elatior); assay: Test A preemergence, visual plant response rating; settings: for Ragweed plant response rating: 125 g ai/ha, preemergence, 0 to 100 scale, 0 no effect, 100 complete control; for Ragweed plant response rating (0 to 100 scale): 500 g ai/ha Preemergence, approx. 10 days
In short: as §1

[7] = system: Italian ryegrass (Lolium multiflorum); assay: Test A postemergence, visual plant response rating; settings: for Ryegrass, Italian plant response rating (0 to 100 scale): 500 g ai/ha, postemergence, 0 is no effect, 100 is complete control; for Ryegrass, Italian plant response rating: Postemergence, 125 g ai/ha, 0 to 100 scale (0 no effect, 100 complete control)
In short: as §1

[8] = system: barnyardgrass (Echinochloa crus-galli); assay: Test A postemergence, visual plant response rating; settings: for Barnyardgrass plant response rating (0 to 100 scale): 500 g ai/ha, postemergence, 0 is no effect, 100 is complete control; for Barnyardgrass plant response rating: Postemergence, 125 g ai/ha, 0 to 100 scale (0 no effect, 100 complete control)
In short: as §1

[9] = system: blackgrass (Alopecurus myosuroides); assay: Test A postemergence, visual plant response rating; settings: for Blackgrass plant response rating (0 to 100 scale): 500 g ai/ha, postemergence, 0 is no effect, 100 is complete control; for Blackgrass plant response rating: Postemergence, 125 g ai/ha, 0 to 100 scale (0 no effect, 100 complete control)
In short: as §1

[10] = system: corn (Zea mays); assay: Test A postemergence, visual plant response rating; settings: for Corn plant response rating (0 to 100 scale): 500 g ai/ha, postemergence, 0 is no effect, 100 is complete control; for Corn plant response rating: Postemergence, 125 g ai/ha, 0 to 100 scale (0 no effect, 100 complete control)
In short: as §1

[11] = system: foxtail, giant (giant foxtail, Setaria faberii); assay: Test A postemergence, visual plant response rating; settings: for Foxtail, Giant plant response rating (0 to 100 scale): 500 g ai/ha, postemergence, 0 is no effect, 100 is complete control; for Foxtail, Giant plant response rating: Postemergence, 125 g ai/ha, 0 to 100 scale (0 no effect, 100 complete control)
In short: as §1

[12] = system: galium (catchweed bedstraw, Galium aparine); assay: Test A postemergence, visual plant response rating; settings: for Galium plant response rating (0 to 100 scale): 500 g ai/ha, postemergence, 0 is no effect, 100 is complete control; for Galium plant response rating: Postemergence, 125 g ai/ha, 0 to 100 scale (0 no effect, 100 complete control)
In short: as §1

[13] = system: kochia (Kochia scoparia); assay: Test A postemergence, visual plant response rating; settings: for Kochia plant response rating (0 to 100 scale): 500 g ai/ha, postemergence, 0 is no effect, 100 is complete control; for Kochia plant response rating: Postemergence, 125 g ai/ha, 0 to 100 scale (0 no effect, 100 complete control)
In short: as §1

[14] = system: pigweed (Amaranthus retroflexus); assay: Test A postemergence, visual plant response rating; settings: for Pigweed plant response rating (0 to 100 scale): 500 g ai/ha, postemergence, 0 is no effect, 100 is complete control; for Pigweed plant response rating: Postemergence, 125 g ai/ha, 0 to 100 scale (0 no effect, 100 complete control)
In short: as §1

[15] = system: ragweed (common ragweed, Ambrosia elatior); assay: Test A postemergence, visual plant response rating; settings: for Ragweed plant response rating (0 to 100 scale): 500 g ai/ha, postemergence, 0 is no effect, 100 is complete control; for Ragweed plant response rating: Postemergence, 125 g ai/ha, 0 to 100 scale (0 no effect, 100 complete control)
In short: as §1

[16] = system: wheat (Triticum aestivum); assay: Test A postemergence, visual plant response rating; settings: for Wheat plant response rating (0 to 100 scale): 500 g ai/ha, postemergence, 0 is no effect, 100 is complete control; for Wheat plant response rating: Postemergence, 125 g ai/ha, 0 to 100 scale (0 no effect, 100 complete control)
In short: as §1

[17] = system: barnyardgrass (Echinochloa crus-galli); assay: Test B flooded paddy test, visual plant response rating; settings: 250 g ai/ha, Flood, applied to paddy water, 2-leaf stage, evaluated after 13 to 15 days
In short: (§2)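 At the two-leaf stage, seedlings received compound applied to paddy water flooded 3 cm above soil, a level sustained until assessment. Greenhouse incubation lasted 13 to 15 days before visual comparison with control plants.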

[18] = system: ducksalad (Heteranhera limosa); assay: as above; settings: 250 g ai/ha, Flood, applied to paddy water, 2-leaf stage, evaluated after 13 to 15 days
In short: as §2

[19] = system: rice (Oryza sativa); assay: as above; settings: 250 g ai/ha, Flood, applied to paddy water, 2-leaf stage, evaluated after 13 to 15 days
In short: as §2

[20] = system: sedge, umbrella (small-flower umbrella sedge, Cyperus difformis); assay: as above; settings: 250 g ai/ha, Flood, applied to paddy water, 2-leaf stage, evaluated after 13 to 15 days
In short: as §2

| Compound | Ryegrass, Italian plant response rating [1] | Ryegrass, Italian plant response rating (0 to 100 scale) [1] | Barnyardgrass plant response rating [2] | Barnyardgrass plant response rating (0 to 100 scale) [2] | Foxtail, Giant plant response rating [3] | Foxtail, Giant plant response rating (0 to 100 scale) [3] | Kochia plant response rating [4] | Kochia plant response rating (0 to 100 scale) [4] | Pigweed plant response rating [5] | Pigweed plant response rating (0 to 100 scale) [5] | Ragweed plant response rating (0 to 100 scale) [6] | Ryegrass, Italian plant response rating (0 to 100 scale) [7] | Ryegrass, Italian plant response rating [7] | Barnyardgrass plant response rating (0 to 100 scale) [8] | Barnyardgrass plant response rating [8] | Blackgrass plant response rating (0 to 100 scale) [9] | Blackgrass plant response rating [9] | Corn plant response rating (0 to 100 scale) [10] | Corn plant response rating [10] | Foxtail, Giant plant response rating (0 to 100 scale) [11] | other results |
| --- | --- | --- | --- | --- | --- | --- | --- | --- | --- | --- | --- | --- | --- | --- | --- | --- | --- | --- | --- | --- | --- |
| CO/N=C(\c1c(O)c(Cl)nn(C)c1=O)c1cccc2ccccc12 [Compound 129, 6-chloro-5-hydroxy-4-[(Z)-(methoxyimino)-1-naphthalenylmethyl]-2-methyl-3(2H)-pyridazinone] | 0 | 0 | 60 | 80 | 60 | 80 | 10 | 50 | 10 | 90 | 100 | 10 | 0 | 50 | 30 | 70 | 30 | 0 | 0 | 60 | Ragweed plant response rating [6]: 70; Foxtail, Giant plant response rating [11]: 40; Galium plant response rating (0 to 100 scale) [12]: 90; Galium plant response rating [12]: 80; Kochia plant response rating (0 to 100 scale) [13]: 80; Kochia plant response rating [13]: 70; Pigweed plant response rating (0 to 100 scale) [14]: 70; Pigweed plant response rating [14]: 40; Ragweed plant response rating (0 to 100 scale) [15]: 100; Ragweed plant response rating [15]: 90; Wheat plant response rating (0 to 100 scale) [16]: 0; Wheat plant response rating [16]: 0; Plant response rating, Barnyardgrass (0 to 100 scale, 0 is no effect, 100 is complete control) [17]: 0; Plant response rating, Ducksalad (0 to 100 scale, 0 is no effect, 100 is complete control) [18]: 0; Plant response rating, Rice (0 to 100 scale, 0 is no effect, 100 is complete control) [19]: 0; Plant response rating, Sedge, Umbrella (0 to 100 scale, 0 is no effect, 100 is complete control) [20]: 0 |
| CON=C(c1c(O)c(C)nn(C)c1=O)c1ccc(Cl)c2ccccc12 [Compound 130] | 30 | 50 | 0 | 70 | 30 | 60 | 0 | 0 | 50 | 50 | 50 | 90 | 30 | 30 | 30 | 70 | 50 | 30 | 10 | 70 | Ragweed plant response rating [6]: 20; Foxtail, Giant plant response rating [11]: 30; Galium plant response rating (0 to 100 scale) [12]: 90; Galium plant response rating [12]: 80; Kochia plant response rating (0 to 100 scale) [13]: 70; Kochia plant response rating [13]: 50; Pigweed plant response rating (0 to 100 scale) [14]: 80; Pigweed plant response rating [14]: 70; Ragweed plant response rating (0 to 100 scale) [15]: 80; Ragweed plant response rating [15]: 60; Wheat plant response rating (0 to 100 scale) [16]: 40; Wheat plant response rating [16]: 10; Plant response rating, Barnyardgrass (0 to 100 scale, 0 is no effect, 100 is complete control) [17]: 0; Plant response rating, Ducksalad (0 to 100 scale, 0 is no effect, 100 is complete control) [18]: 0; Plant response rating, Rice (0 to 100 scale, 0 is no effect, 100 is complete control) [19]: 0; Plant response rating, Sedge, Umbrella (0 to 100 scale, 0 is no effect, 100 is complete control) [20]: 35 |
| CON=C(c1c(O)c(C)nn(C)c1=O)c1ccc(C)c2ccccc12 [Compound 131] | 0 | 0 | 0 | 60 | 60 | 70 | 0 | 20 | 0 | 0 | 80 | 10 | 0 | 50 | 20 | 50 | 30 | 20 | 0 | 50 | Ragweed plant response rating [6]: 60; Foxtail, Giant plant response rating [11]: 10; Galium plant response rating (0 to 100 scale) [12]: 80; Galium plant response rating [12]: 80; Kochia plant response rating (0 to 100 scale) [13]: 30; Kochia plant response rating [13]: 10; Pigweed plant response rating (0 to 100 scale) [14]: 10; Pigweed plant response rating [14]: 0; Ragweed plant response rating (0 to 100 scale) [15]: 80; Ragweed plant response rating [15]: 80; Wheat plant response rating (0 to 100 scale) [16]: 0; Wheat plant response rating [16]: 0; Plant response rating, Barnyardgrass (0 to 100 scale, 0 is no effect, 100 is complete control) [17]: 0; Plant response rating, Ducksalad (0 to 100 scale, 0 is no effect, 100 is complete control) [18]: 0; Plant response rating, Rice (0 to 100 scale, 0 is no effect, 100 is complete control) [19]: 0; Plant response rating, Sedge, Umbrella (0 to 100 scale, 0 is no effect, 100 is complete control) [20]: 0 |
| CON=C(c1sccc1C)c1c(O)c(C)nn(C)c1=O [Compound 134] | 10 | 30 | 0 | 10 | 0 | 10 | 10 | 50 | 20 | 60 | 70 | 80 | 20 | 20 | 10 | 10 | 0 | 0 | 0 | 20 | Foxtail, Giant plant response rating [11]: 10; Galium plant response rating (0 to 100 scale) [12]: 60; Galium plant response rating [12]: 60; Kochia plant response rating (0 to 100 scale) [13]: 70; Kochia plant response rating [13]: 20; Pigweed plant response rating (0 to 100 scale) [14]: 80; Pigweed plant response rating [14]: 40; Ragweed plant response rating (0 to 100 scale) [15]: 70; Ragweed plant response rating [15]: 60; Wheat plant response rating (0 to 100 scale) [16]: 0; Wheat plant response rating [16]: 0; Plant response rating, Barnyardgrass (0 to 100 scale, 0 is no effect, 100 is complete control) [17]: 0; Plant response rating, Ducksalad (0 to 100 scale, 0 is no effect, 100 is complete control) [18]: 0; Plant response rating, Rice (0 to 100 scale, 0 is no effect, 100 is complete control) [19]: 0; Plant response rating, Sedge, Umbrella (0 to 100 scale, 0 is no effect, 100 is complete control) [20]: 0 |
